Read-outs that look alike come from different tables or passages of the source. Square brackets hold non-standard residues; d marks the D form. Peptide text beside a SMILES is read from it. pGlu = O=C1CC[CH](C(=O)O)N1
What was measured:
rat thoracic aorta rings [1] = type: cell-based; conditions: for Aortic Ring contraction pEC50: endothelium-denuded rat thoracic aorta; for Aortic Ring contraction Emax (%): percentage of contraction induced by KCl (40 mM)
Protocol: Binding and functional experiments were performed at least in triplicate and data, expressed as mean±S.E.M, were analyzed using the Prism software (Graph Pad Software, San Diego, Calif.). In all experiments, n represents the total number of animals studied or individual assays performed. The EC50, pEC50, pIC50 values as well as the Emax value were determined from the concentration-response curves using a sigmoidal dose-response fit with variable slope. […] The slope is calculated from the double reciprocal plot of equiactive concentrations of agonist in the presence and absence of antagonist.

anaesthetized rats = experiment: Hemodynamic assessment (arterial blood pressure) in anaesthetized rats; type: in vivo, rat
Protocol: Male Sprague-Dawley rats, weighing 350-400 g, were anaesthetized by isoflurane inhalation delivered in 100% oxygen (1 l/min) from an Ohmeda Tec 4 anaesthetic vaporizer (Somatechnology, Inc., Bloomfield, Conn., USA). Anaesthesia was maintained by mask inhalation of isoflurane vaporized at concentrations of up to 3% in the induction phase, at 1.5% during acute surgical procedures and at 0.8-1.0% during experimental observations. […]. […] A period of stabilisation of 30 min was observed and the following experimental protocols were then performed and arterial blood pressure was evaluated. During isoflurane inhalation, no breathing complications or changes in blood pressure were observed. […].
In a preliminary study, individual rats received a single i.v. injection of hUII ranging from 1 to 30 nmol/kg. A dose-response curve, reflecting the effect of hUII on the change in blood pressure, was then determined.
In this set of experiments, five groups of rats were used. […] […]. Hemodynamic changes were continuously captured by the pressure probe over a period of 1 h. The maximum rise and the maximum drop in blood pressure was determined and analyzed using the PowerLab software (ADInstruments, Colorado Springs, Colo., USA).
In the control group, the rats received two doses of hUII (10 nmol/kg) with a 30 min interval between the first and second injection.

[2] = molecular target: T1, human urotensin II receptor (UT) (Homo sapiens, UniProt Q9UKP6); experiment: Competitive radioligand binding on CHO-UT cells
T1 construct: expressed in transfected cells; host or cells: CHO cells (CHO-UT), stably transfected, G418 selection
T1 sequence (Q9UKP6 1-389): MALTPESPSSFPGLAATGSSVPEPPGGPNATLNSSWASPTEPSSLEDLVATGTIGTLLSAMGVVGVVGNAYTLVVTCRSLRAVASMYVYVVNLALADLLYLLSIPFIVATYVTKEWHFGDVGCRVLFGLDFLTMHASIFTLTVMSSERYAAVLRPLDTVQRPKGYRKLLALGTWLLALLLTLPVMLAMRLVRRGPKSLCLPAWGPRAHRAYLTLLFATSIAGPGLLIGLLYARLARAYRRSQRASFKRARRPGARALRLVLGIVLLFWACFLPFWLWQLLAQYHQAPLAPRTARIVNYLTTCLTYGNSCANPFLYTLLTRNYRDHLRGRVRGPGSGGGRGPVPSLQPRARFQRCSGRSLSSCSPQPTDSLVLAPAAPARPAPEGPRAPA
Protocol: Transfected CHO cells expressing the human urotensin receptor (CHO-UT) were maintained in Ham-F12 medium with 10% fetal bovine serum (FBS), 2 mM L-glutamine, 100 UI/mL each of penicillin and streptomycin, and 400 μg/mL G418. […] Binding assays were following known literature procedures using CHO cells stably transfected with hGPR14. […] After 90 min of incubation at room temperature, cells were washed, lysed, and the cell-bound radioactivity was quantified using a γ-counter. […] The cells were then washed, lysed, and the radioactivity counted on a γ-counter (1470 Automatic Gamma Counter, Perkin Elmer). Binding and functional experiments were performed at least in triplicate and data, expressed as mean±S.E.M, were analyzed using the Prism software (Graph Pad Software, San Diego, Calif.). In all experiments, n represents the total number of animals studied or individual assays performed. The EC50, pEC50, pIC50 values as well as the Emax value were determined from the concentration-response curves using a sigmoidal dose-response fit with variable slope. […] The slope is calculated from the double reciprocal plot of equiactive concentrations of agonist in the presence and absence of antagonist.

rat thoracic aorta rings [3] = experiment: Antagonism of UII- or URP-induced contraction of rat aortic ring; type: cell-based; conditions: pretreatment 10^−6M, 15 min
Protocol: Male rats (Sprague-Dawley, 250-300 g) were killed by CO2 asphyxiation. The thoracic aorta was then cleared of surrounding tissues and excised from aortic arch to the diaphragm. From each vessel, conjunctive tissues were removed and the clean vessel was cut into 4 mm rings. The endothelium was removed by gently rubbing the vessel's intimal surface. All preparations were placed in 5 ml organ baths filled with oxygenated normal Krebs-Henselheit solution. Contractile responses to 40 mM KCl were used as control at the beginning and at the end of each experiment. Agonistic activity was measured by increasing the concentration of the peptide in the organ chamber (3×10^−11-3×10^−6 M). For antagonist behaviour, thoracic aortic rings were first exposed to URP derivative over a period of 15 min, and then cumulative concentration-response curves to hUII, URP or ET-1 (10^−10-3×10^−6 M) were constructed. The amplitude of the contraction induced by each concentration of peptide was expressed as a percentage of the KCl-induced contraction. Finally, the ability of the antagonist to reverse the hUII-induced contraction was also evaluated. Vessels were pre-contracted with 4 nM hUII (pre-determined EC80) and after the maximum contraction was attained, contractile tone was reversed by adding increasing log unit concentrations of URP derivative. […] Binding and functional experiments were performed at least in triplicate and data, expressed as mean±S.E.M, were analyzed using the Prism software (Graph Pad Software, San Diego, Calif.). In all experiments, n represents the total number of animals studied or individual assays performed. The EC50, pEC50, pIC50 values as well as the Emax value were determined from the concentration-response curves using a sigmoidal dose-response fit with variable slope. Non-competitive antagonist affinities (pKb) were determined using the method of Gaddum where equiactive concentrations of agonist, in the absence or presence of URP derivative, were compared in a linear regression. The resulting slope was used to calculate the equilibrium constant Kb using the following equation: Kb=[B]/(slope−1); where [B] is the antagonist concentration. The slope is calculated from the double reciprocal plot of equiactive concentrations of agonist in the presence and absence of antagonist.

rat thoracic aorta rings [4] = experiment: Effect on ET-1-induced contraction of rat aortic ring; type: cell-based; conditions: without [Bip^4]URP
Protocol: Male rats (Sprague-Dawley, 250-300 g) were killed by CO2 asphyxiation. The thoracic aorta was then cleared of surrounding tissues and excised from aortic arch to the diaphragm. From each vessel, conjunctive tissues were removed and the clean vessel was cut into 4 mm rings. The endothelium was removed by gently rubbing the vessel's intimal surface. All preparations were placed in 5 ml organ baths filled with oxygenated normal Krebs-Henselheit solution. Contractile responses to 40 mM KCl were used as control at the beginning and at the end of each experiment. Agonistic activity was measured by increasing the concentration of the peptide in the organ chamber (3×10^−11-3×10^−6 M). For antagonist behaviour, thoracic aortic rings were first exposed to URP derivative over a period of 15 min, and then cumulative concentration-response curves to hUII, URP or ET-1 (10^−10-3×10^−6 M) were constructed. The amplitude of the contraction induced by each concentration of peptide was expressed as a percentage of the KCl-induced contraction. Finally, the ability of the antagonist to reverse the hUII-induced contraction was also evaluated. Vessels were pre-contracted with 4 nM hUII (pre-determined EC80) and after the maximum contraction was attained, contractile tone was reversed by adding increasing log unit concentrations of URP derivative.

[5] = 125I-hUII 0.2 nM, CHO-UT cells, 95% confidence limits in parentheses, read-out: Binding IC50

| Compound | EC50 (rat thoracic aorta rings [1]) [nM] | Aortic Ring contraction pEC50 (rat thoracic aorta rings [1]) | Aortic Ring contraction Emax (%) (rat thoracic aorta rings [1]) | Binding affinity for UT (in words) [2] | other results |
| --- | --- | --- | --- | --- | --- |
| CC(C)[C@H](NC(=O)[C@@H]1CSSC[C@H](NC(=O)[C@H](C)N)C(=O)N[C@@H](Cc2ccccc2)C(=O)N[C@@H](Cc2c[nH]c3ccccc23)C(=O)N[C@@H](CCCCN)C(=O)N[C@@H](Cc2ccc(O)cc2)C(=O)N1)C(=O)O [Compound 2, reference compound] | 7 | 8.09±0.18 | 100±6 | high affinity | Hemodynamic response to bolus i.v. injection (anaesthetized rats; 0.01 μmol/kg i.v.): biphasic hemodynamic response; Time of hypotension nadir (anaesthetized rats; 0.01 μmol/kg i.v.): ~6 min; Time of pressor phase peak (anaesthetized rats; 0.01 μmol/kg i.v.): ~1 min; Response to repeated injections (anaesthetized rats; 10 nmol/kg twice, 30 min interval): equivalent biphasic responses; Effect of prior URP injection on hUII hemodynamic response (anaesthetized rats; hUII 30 min after URP bolus, 10 nmol/kg): such observation was not made; IC50 ([2]; Binding (125I-URP) IC50 (nM), radioligand 125I-URP, recombinant human UT): 31.8 nM; IC50 ([2]; Binding (125I-hUII) IC50 (nM), radioligand 125I-hUII, recombinant human UT): 12.4 nM; Binding (125I-hUII) pIC50 ([2]; radioligand 125I-hUII, recombinant human UT): 7.90 ± 0.11 |
| CC(C)[C@H](NC(=O)[C@@H]1CSSC[C@H](NC(=O)[C@H](C)N)C(=O)N[C@@H](Cc2ccccc2)C(=O)N[C@@H](c2ccccc2)C(=O)N[C@@H](CCCCN)C(=O)N[C@@H](Cc2ccc(O)cc2)C(=O)N1)C(=O)O [Compound 14, H-Ala-Cys-Phe-Phg-Lys-Tyr-Cys-Val-OH] | 251 | 6.60 ± 0.15 | 102 ± 9 | high binding affinity | IC50 [2, 5]: 29 nM |
| CC(C)[C@H](NC(=O)[C@@H]1CSSC[C@H](NC(=O)[C@H](C)N)C(=O)N[C@@H](Cc2ccccc2)C(=O)N[C@H](c2ccccc2)C(=O)N[C@@H](CCCCN)C(=O)N[C@@H](Cc2ccc(O)cc2)C(=O)N1)C(=O)O [Compound 15, [D-Phg^4]URP] | 117 | 6.93 ± 0.09 | 116 ± 5 | high binding affinity | IC50 [2, 5]: 29 nM |
| CC(C)[C@H](NC(=O)[C@@H]1CSSC[C@H](NC(=O)[C@H](C)N)C(=O)N[C@@H](Cc2ccccc2)C(=O)N2CCc3ccccc3[C@H]2C(=O)N[C@@H](CCCCN)C(=O)N[C@@H](Cc2ccc(O)cc2)C(=O)N1)C(=O)O [Compound 16, H-Ala-Cys-Phe-Tiq-Lys-Tyr-Cys-Val-OH] | 22 | 7.66 ± 0.11 | 126 ± 5 | high binding affinity | Agonist behaviour in aortic ring contraction (in words) (rat thoracic aorta rings [1]): contractile efficacy and potency comparable to the endogenous peptides |
| CC(C)[C@H](NC(=O)[C@@H]1CSSC[C@H](NC(=O)[C@H](C)N)C(=O)N[C@@H](Cc2ccccc2)C(=O)N2Cc3ccccc3C[C@H]2C(=O)N[C@@H](CCCCN)C(=O)N[C@@H](Cc2ccc(O)cc2)C(=O)N1)C(=O)O [Compound 18, H-Ala-Cys-Phe-Tic-Lys-Tyr-Cys-Val-OH] | > 1000 | <6 | – | dramatic loss of binding affinity | Aortic Ring contraction Emax (%), maximum efficacy at 10^−5.5M (rat thoracic aorta rings [1]; percentage of KCl (40 mM) contraction, at 10^−5.5M): 43% |
| CC(NC(=O)C(NC(=O)CNC(=O)C(Cc1c[nH]cn1)NC(=O)C1CCC(=O)N1)C(C)O)C(=O)N1CCCC1C(=O)NC(CCC(=O)O)C(N)=O (stereo not drawn) [rUII(1-7), Pyr-His-Gly-Thr-Ala-Pro-Glu-NH2] ([pGlu]HGTAPE-NH2; configuration not given here) | – | – | – | – | Effect on URP-associated contraction curve (in words) (rat thoracic aorta rings [3]): significant rightward shift; Effect on rUII-induced contraction (in words) (rat thoracic aorta rings [3]): did not significantly alter; Agonist behaviour in aortic ring contraction (in words) (rat thoracic aorta rings [1]): unable to induce the contraction of rat aortic rings |
| endothelin-1 [ET-1, reference compound] | – | – | – | – | ET-1 Emax (rat thoracic aorta rings [4]): 119±6; ET-1 pEC50 (rat thoracic aorta rings [4]): 8.06±0.15 |

Source: patent US9340575B2, “Agonists and antagonists of the urotensinergic system” (INSTITUT NATIONAL DE LA RECHERCHE SCIENTIFIQUE, priority 2011, dated 2016)
